Columns and labels:
α-amylase [1] = target: T1, α-amylase (Sus scrofa, UniProt P00690); assay: Mode of α-AMY inhibition (reversibility, Lineweaver–Burk kinetics); format: biochemical
T1 sequence (P00690 16-511): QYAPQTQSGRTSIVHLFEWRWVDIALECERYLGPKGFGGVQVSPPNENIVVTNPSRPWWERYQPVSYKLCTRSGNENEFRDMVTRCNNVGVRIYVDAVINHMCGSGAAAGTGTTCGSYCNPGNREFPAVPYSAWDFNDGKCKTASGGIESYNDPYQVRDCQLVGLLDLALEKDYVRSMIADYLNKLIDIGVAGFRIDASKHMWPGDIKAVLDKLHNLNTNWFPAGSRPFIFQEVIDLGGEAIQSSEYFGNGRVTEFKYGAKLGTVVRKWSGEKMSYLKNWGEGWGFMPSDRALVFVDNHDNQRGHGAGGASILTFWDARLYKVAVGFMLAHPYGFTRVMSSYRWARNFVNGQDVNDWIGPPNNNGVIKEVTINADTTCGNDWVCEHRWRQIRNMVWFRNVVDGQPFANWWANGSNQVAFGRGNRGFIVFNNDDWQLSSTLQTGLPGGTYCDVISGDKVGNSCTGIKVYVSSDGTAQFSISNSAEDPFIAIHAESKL

α-amylase [2] = target: T1, α-amylase; assay: Fluorescence quenching, binding and thermodynamics with α-amylase
In short: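 Porcine α-amylase (200 U/L) mixed 1:1 with porphyrins, and intrinsic fluorescence quenching corrected for the inner-filter effect. KSV and Kq derived from linear or exponential Stern–Volmer fits with τ0 10^−8 s. ΔH^0, ΔS^0 and ΔG^0 obtained from Van't Hoff plots of lnKa against 1/T.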

α-glucosidase [3] = target: T2, α-glucosidase (Saccharomyces cerevisiae, UniProt P53341); assay: Fluorescence quenching, binding and thermodynamics with α-glucosidase
T2 sequence (P53341 whole entry): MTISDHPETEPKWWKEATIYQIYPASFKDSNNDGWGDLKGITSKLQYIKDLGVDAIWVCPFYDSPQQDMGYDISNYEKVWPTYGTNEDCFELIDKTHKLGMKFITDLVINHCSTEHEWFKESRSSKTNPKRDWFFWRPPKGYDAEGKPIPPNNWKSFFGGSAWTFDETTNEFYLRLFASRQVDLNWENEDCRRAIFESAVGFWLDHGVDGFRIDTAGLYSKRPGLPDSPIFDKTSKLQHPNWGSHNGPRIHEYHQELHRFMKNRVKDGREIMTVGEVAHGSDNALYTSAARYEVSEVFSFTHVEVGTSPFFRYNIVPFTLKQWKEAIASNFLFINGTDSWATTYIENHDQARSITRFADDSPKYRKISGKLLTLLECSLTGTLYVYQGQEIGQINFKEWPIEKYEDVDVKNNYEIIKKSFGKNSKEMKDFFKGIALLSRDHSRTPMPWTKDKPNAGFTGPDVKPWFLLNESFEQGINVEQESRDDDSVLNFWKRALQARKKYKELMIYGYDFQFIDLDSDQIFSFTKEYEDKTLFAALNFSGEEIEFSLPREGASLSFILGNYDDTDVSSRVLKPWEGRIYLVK
In short: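 Enzyme at 400 U/L mixed 1:1 with porphyrins, held 30 min at 298, 304 and 310 K; excitation 280 nm, emission 300–500 nm, inner-filter corrected. Quenching constants from Stern–Volmer fits; ΔH^0, ΔS^0 and ΔG^0 from van't Hoff plot of lnKa versus 1/T.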

α-amylase [4] = target: T1, α-amylase; assay: FTIR secondary structure analysis of α-AMY complexes; settings: enzyme–porphyrin molar ratio 1:2, amide I band
In short: (§1)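 Enzyme–porphyrin at 1:2 molar ratio was dried and pressed in KBr, then scanned at 4000–400 cm^−1 with 4 cm^−1 resolution. Secondary-structure content came from curve-fitting the amide I band (1700–1600 cm^−1) into sub-peaks.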

α-glucosidase [5] = target: T2, α-glucosidase; assay: FTIR secondary structure analysis of α-GLU complexes; settings: enzyme–porphyrin molar ratio 1:2, amide I band
In short: as §1

Which Vmax (α-amylase [1]; C 20 μg/mL) does the source give for `Oc1ccc(-c2c3nc(c(-c4ccc(O)cc4)c4ccc([nH]4)c(-c4ccc(O)cc4)c4nc(c(-c5ccc(O)cc5)c5ccc2[nH]5)C=C4)C=C3)cc1` [THPP] here?
The Vmax was 0.0740 ± 0.0028 ΔOD/min.

What about the Vmax (α-amylase [1]; C 30 μg/mL) of the same compound?
Its Vmax is 0.0580 ± 0.0010 ΔOD/min.

What about the Vmax (α-amylase [1]; C 40 μg/mL) of the same compound?
Its Vmax is 0.0491 ± 0.0012 ΔOD/min.

And the Vmax (α-amylase [1]; C 50 μg/mL)?
Its Vmax is 0.0426 ± 0.0013 ΔOD/min.

What about the Vmax (α-amylase [1]; C 60 μg/mL) of the same compound?
The Vmax was 0.0376 ± 0.0012 ΔOD/min.

What about the “type of inhibition of α-amylase” value (α-amylase [1]; Lineweaver–Burk plots) of the same compound?
Its value is “mixed type”.

What about the “reversibility of inhibition of α-amylase” value (α-amylase [1]; enzyme 100–400 U/L, substrate 5 mmol/L) of the same compound?
The value was “reversible inhibition”.

And the Kis (α-amylase [1]; enzyme–substrate complex inhibition constant)?
Its Kis is 23.1012 ± 0.1027 µg/mL.

What about the “quenching mechanism of α-amylase fluorescence” value (α-amylase [2]; Stern–Volmer plots, 298–310 K) of the same compound?
The value was “pure static quenching”.

And the Kq (α-amylase [2]; T 298 K)?
Its Kq is 8.90 ± 0.06 ×10^12 L/mol/s.

And the Ksv (α-amylase [2]; T 298 K)?
The Ksv was 8.90 ± 0.06 ×10^4 L/mol.

What about the “n (number of binding sites)” value (α-amylase [2]; T 298 K) of the same compound?
The value was 1.19.

And the “ΔG^0” value (α-amylase [2]; T 298 K)?
The value was -7.844 ± 0.019 kcal/mol.

And the Kq (α-amylase [2]; T 304 K)?
Its Kq is 8.20 ± 0.02 ×10^12 L/mol/s.

And the Ksv (α-amylase [2]; T 304 K)?
The Ksv was 8.20 ± 0.02 ×10^4 L/mol.

And the “n (number of binding sites)” value (α-amylase [2]; T 304 K)?
The value was 1.16.

What about the “ΔG^0” value (α-amylase [2]; T 304 K) of the same compound?
The value was -7.737 ± 0.019 kcal/mol.

And the Kq (α-amylase [2]; T 310 K)?
Its Kq is 7.64 ± 0.07 ×10^12 L/mol/s.

And the Ksv (α-amylase [2]; T 310 K)?
The Ksv was 7.64 ± 0.07 ×10^4 L/mol.

What about the “n (number of binding sites)” value (α-amylase [2]; T 310 K) of the same compound?
Its value is 1.12.

What about the “ΔG^0” value (α-amylase [2]; T 310 K) of the same compound?
The value was -7.646 ± 0.017 kcal/mol.

And the “ΔH^0” value (α-amylase [2]; Van’t Hoff, 298–310 K)?
The value was -12.73 ± 0.012 kcal/mol.

And the “ΔS^0” value (α-amylase [2]; Van’t Hoff, 298–310 K)?
The value was −68.61 ± 0.06 J/mol/k.

What about the “binding constants K” value (α-glucosidase [3]; 310 K) of the same compound?
Its value is “(3.39 ± 0.03) × 10^5 L·mol^−1”.

What about the “quenching mechanism of α-glucosidase fluorescence” value (α-glucosidase [3]; Stern–Volmer plots, 298–310 K) of the same compound?
The value was “static quenching”.

And the Kq (α-glucosidase [3]; T 298 K)?
Its Kq is 7.40 ± 0.06 ×10^12 L/mol/s.

And the Ksv (α-glucosidase [3]; T 298 K)?
The Ksv was 7.40 ± 0.06 ×10^4 L/mol.

And the “n (number of binding sites)” value (α-glucosidase [3]; T 298 K)?
Its value is 1.29.

And the “ΔG^0” value (α-glucosidase [3]; T 298 K)?
The value was -8.439 ± 0.0239 kcal/mol.

What about the Kq (α-glucosidase [3]; T 304 K) of the same compound?
Its Kq is 6.97 ± 0.06 ×10^12 L/mol/s.

What about the Ksv (α-glucosidase [3]; T 304 K) of the same compound?
The Ksv was 6.97 ± 0.06 ×10^4 L/mol.

What about the “n (number of binding sites)” value (α-glucosidase [3]; T 304 K) of the same compound?
Its value is 1.23.

What about the “ΔG^0” value (α-glucosidase [3]; T 304 K) of the same compound?
The value was -8.212 ± 0.022 kcal/mol.

What about the Kq (α-glucosidase [3]; T 310 K) of the same compound?
Its Kq is 6.69 ± 0.04 ×10^12 L/mol/s.

What about the Ksv (α-glucosidase [3]; T 310 K) of the same compound?
The Ksv was 6.69 ± 0.04 ×10^4 L/mol.

What about the “n (number of binding sites)” value (α-glucosidase [3]; T 310 K) of the same compound?
Its value is 1.16.

And the “ΔG^0” value (α-glucosidase [3]; T 310 K)?
The value was -7.844 ± 0.014 kcal/mol.

And the “ΔH^0” value (α-glucosidase [3]; Van’t Hoff, 298–310 K)?
The value was -23.22 ± 0.022 kcal/mol.

What about the “ΔS^0” value (α-glucosidase [3]; Van’t Hoff, 298–310 K) of the same compound?
The value was −207.25 ± 0.13 J/mol/k.

What about the “Random Coil” value (α-amylase [4]) of the same compound?
Its value is 17.71 ± 0.07%.

And the α-Helix (α-amylase [4])?
The α-Helix was 22.24 ± 0.06%.

What about the β-Antiparallel (α-amylase [4]) of the same compound?
Its β-Antiparallel is 13.37 ± 0.03%.

And the β-Sheet (α-amylase [4])?
Its β-Sheet is 12.92 ± 0.05%.

And the β-Turn (α-amylase [4])?
Its β-Turn is 33.76 ± 0.08%.

What about the “Random Coil” value (α-glucosidase [5]) of the same compound?
The value was 23.74 ± 0.06%.

And the α-Helix (α-glucosidase [5])?
The α-Helix was 21.19 ± 0.05%.

What about the β-Antiparallel (α-glucosidase [5]) of the same compound?
The β-Antiparallel was 7.07 ± 0.01%.

What about the β-Sheet (α-glucosidase [5]) of the same compound?
The β-Sheet was 12.79 ± 0.03%.

What about the β-Turn (α-glucosidase [5]) of the same compound?
Its β-Turn is 35.20 ± 0.11%.

— article PMC12467033, “Exploring the Inhibitory Potential of Six Porphyrin Compounds Against α-Amylase and α-Glucosidase Linked to Diabetes” (Biomolecules, 2025)
